Source: US10934253B2, “Therapeutic compounds and methods” (UNIVERSITY OF TASMANIA, priority 2017, dated 2021)

Tests used:
HepG2 cells [1] = experiment: Acute ATP rescue assay (impaired mitochondrial function, rotenone); format: cell-based; details: for activity at 1 µM: Homo sapiens, 1 h, HepG2, 1 μM quinones with rotenone 10 μM, 60 minutes, glucose-free DMEM, % ATP compared to untreated (no-rotenone) control
Description: HepG2 cells were seeded at a density of 5000 cells per well in a 96-well plate and incubated for 24 hours in DMEM with 0.3 g/l glucose, 10% FBS and Penicillin-Streptomycin-Glutamine. Cells were treated with 1 μM quinones in presence or absence of rotenone (10 μM), for 60 minutes in glucose-free DMEM ATP levels were quantified using luminescence from the ATP-dependent enzymatic oxidation of luciferin by luciferase. Cells were lysed in a volume of 40 μl (4 mM EDTA, 0.2% Triton X-100) for five minutes at room temperature (RT) on an orbital shaker at 200 rpm. […] Luminescence was quantified immediately using a multimode plate reader (Fluoroscan Ascent, Thermo Scientific). ATP levels were standardized to protein levels using a commercial BCA assay (Protein DC; BioRad) and changes were calculated as percentage relative to levels of DMSO-treated control cells. Data is expressed as % ATP compared to the untreated (no-rotenone) control.
Vitamin K, menadione and idebenone were used as comparative controls. DMSO was used as a control.

HepG2 cells [2] = experiment: Rescue of cell viability in the presence of a mitochondrial inhibitor (rotenone 1 μM); format: cell-based; details: Homo sapiens, HepG2
Description: (§1) Cytoprotection of HepG2 cells by naphthoquinones was quantified in the presence of the mitochondrial toxin, rotenone. Briefly, HepG2 cells were seeded in 96-well plates at 5000 cells/well in DMEM with 0.3 g/l glucose, 10% FBS and Penicillin-Streptomycin-Glutamine. After overnight incubation under standard conditions, cells were treated with the test compounds (10 μM) for 2 days before cells were challenged with 1 μM rotenone in the presence of 10 μM test compounds in Hank's balanced salt solution (HBSS) for 6 hours. This was followed by post-incubation for an additional 18 hours with only 10 μM test compounds in HBSS. For measurement of cell viability, cells were washed with 100 μL PBS twice and then lysed using 40 μL lysis solution (4 mM EDTA, 0.2% Triton X-100) for 5 min at room temperature (RT) on an orbital shaker at 200 rpm. Then 10 μL of the lysate was mixed with 90 μL of enzyme-substrate mixture (as described above) in a white 96 well plate and luminescence was measured immediately using a plate-reader (Fluoroscan Ascent, Thermo Scientific). The data is expressed as % viability compared to the untreated (no-rotenone) control.
The extent of protection of cellular viability against a rotenone challenge of representative compounds of Formula (I) is shown below in Table 5. Vitamin K, Menadione and Idebenone were used as comparative controls. DMSO was used as a control.

HepG2 cells [3] = experiment: Cell viability in the presence of a mitochondrial inhibitor (rotenone 10 μM); format: cell-based; details: Homo sapiens, read-out: CELL VIABILITY [%]
Description: as §1
The cytoprotective effects of representative compounds of Formula (I) were further examined in vitro in response to rotenone toxicity at (10 μM). […] Cells were treated with the representative compounds of Formula (I) compounds (10 μM) for 2 days before cells were challenged with 10 μM rotenone.
Vitamin K, Menadione and Idebenone were used as comparative controls.

HepG2 cells [4] = experiment: Extracellular lactate levels, enzyme-linked colorimetric assay; format: cell-based; details: HepG2 culture medium; for Extracellular lactate [% control]: 25 mM glucose, supernatant after 48 h, standardized to protein; for Effect on lactate production (in words): comment on the lactate table
Description: Lactate concentrations in culture medium were determined by an enzyme-linked colorimetric assay. Briefly, 150,000 HepG2 cells were seeded in normal growth media (DMEM, 10% FCS, Pen/Strep) in each well of a 6-well plate (Life Science, USA) and incubated for 24 h. The media was replaced with growth media containing (25 mM glucose,) with and without test compounds. Three untreated wells containing only cells were considered the experimental baseline control and all compounds were tested in three different wells simultaneously. Supernatants were collected after 48 h and transferred into 96-well format. After the addition of 90 μl of reaction buffer (10 mM KH2PO4 pH 7.8, 1 mg/ml BSA, 0.5 mM PMS, 2 mM EDTA, 0.6 mM DCPIP, 0.8 mM NAD+, 5 U/ml glutamate-pyruvate-transaminase, 1.5 mM glutamate, 12.5 U/ml lactate dehydrogenase) the plate was incubated at 30° C. inside a multimode plate reader (Multiscan Go, Thermo Scientific) and absorbance was measured at 600 nm over a period of 100 minutes. A standard curve was generated using media spiked with known lactate concentrations. Finally, protein levels were quantified and the lactate concentration of each well was standardized to its protein content and was then expressed as % of control.
The extent of lactate reduction in the cell culture media by the test compounds of the subject invention and the Comparative Compounds vitamin K, menadione and idebenone is shown below in Table 6.

[5] = test system: LHON model induced by intravitreal rotenone in C57BL/6 mouse; experiment: Leber's hereditary optic neuropathy (LHON) mouse model, optomotor response; format: in vivo; details: rotenone in left eye, 200 mg/kg orally in food
Description: FIG. 5: Efficacy of representative compounds of Formula (I) in leber's hereditary optic neuropathy (LHON) mouse model. LHON induced by rotenone injection in the left eye (5 μM) in C57BL/6 mouse model (Refer to Heitz, F. D et al. (2012). PLoS One., 7(9), e45182). […] Representative compounds (UTA 37 and UTA 77) and idebenone administered at 200 mg/kg over the observation period.
LHON model was induced by intravitreal injection of rotenone into the left eye in C57BL/6 mouse model as described by Heitz et al. 2012. Representative compounds (UTA 37 and UTA 77) and idebenone administered at 200 mg/kg over the observation period. Vision loss was measured by assessing number of head turns.
C57BL/6 mice (male, 8-11 weeks of age, average body weight≈25 g) were used in accordance with the Australian code for the use of animals for scientific purposes and under the required animal ethics approval from the University of Tasmania (UTAS) Animal Ethics Committee (Approval number A0016080). Animals were given at least seven days to acclimatise to the animal facility to reduce stress induced by transportation before being used for behavioural testing. All mice were supplied orally with test compounds by mixing test compounds into individual daily food portions as described previously (Heitz, F. D. et al. (2012). PLoS One., 7(9), e45182). […]

Row | SMILES | activity at 1 µM (HepG2 cells [1]) [%] | Extracellular lactate [% control] (HepG2 cells [4]) | viability at 10 µM (HepG2 cells [2]) [%] | viability at 10 µM (HepG2 cells [3]; HepG2, 48 h) [%] | also measured
1 | COC1=C(OC)C(=O)C(CCCCCCCCCCO)=C(C)C1=O [Idebenone, idebenone, reference compound] | 81 | 111.9 | – | – | viability at 10 µM (HepG2 cells [2]; 10 μM test compound 2 days, 1 μM rotenone challenge 6 hours, 18 hours post-incubation, % of untreated (no-rotenone) control, read-out: Viability [%]): 66.2%; viability at 10 µM (HepG2 cells [3]; 48 h, HepG2, compounds 10 uM for 2 days, then 10 μM rotenone challenge): 66.2%; Effect on lactate production (in words) (HepG2 cells [4]): increase lactate concentrations
2 | CC1=CC(=O)c2ccccc2C1=O [Menadione, reference compound] | 30.6 | 163.3 | 64 | 64 | ATP rescue (in words) (HepG2 cells [1]; HepG2, rotenone, comment on Table 4): no or minor effects; Effect on lactate production (in words) (HepG2 cells [4]): increase lactate concentrations
3 | CCCCC1=C(C)C(=O)c2ccccc2C1=O [UTA #19] | – | 65.3 | – | – | –
4 | COc1ccc(CC2=C(C)C(=O)c3ccccc3C2=O)cc1OC [UTA #20] | – | 78.6 | – | – | –
5 | CCCCCCCC1=C(C)C(=O)c2ccccc2C1=O [UTA #21] | – | 75.6 | – | – | –
6 | CC1=C(CCC2CCCC2)C(=O)c2ccccc2C1=O [UTA #22] | – | 73 | – | – | –
7 | CC1=C(CCCC(=O)N[C@@H](Cc2ccccc2)C(=O)O)C(=O)c2ccccc2C1=O [UTA #37, (S)-2-(4-(3-methyl-1,4-naphthoquinone-2-yl)butanamido)-3-phenylpropanoic Acid] | – | – | 100 | 100 | Protection of visual acuity (head turns, optomotor response; in words) [5]: Statistically significant protection of visual acuity
8 | CC1=C(CCCC(=O)N[C@@H](CC(C)C)C(=O)O)C(=O)c2ccccc2C1=O [UTA #54] | – | 79.1 | 98.7 | 98.7 | –
9 | CC1=C(CCCC(=O)N[C@@H](Cc2ccc(O)cc2)C(=O)OC(C)(C)C)C(=O)c2ccccc2C1=O [UTA #55] | 94.8 | – | – | 78.6 | –
10 | CC1=C(CCCC(=O)N[C@H](CO)Cc2ccccc2)C(=O)c2ccccc2C1=O [UTA #62, (S)—N-(1-hydroxy-3-phenylpropan-2-yl)-4-(3-methyl-1,4-naphthyoquinone-2-yl)butanamide] | 91.2 | – | 93.1 | 93.1 | –
11 | CC1=C(CCC(=O)N[C@@H](Cc2ccccc2)C(=O)OC(C)(C)C)C(=O)c2ccccc2C1=O [UTA #65] | 91.1 | – | – | 60.1 | –
12 | CC1=C(CCC(=O)N[C@@H](Cc2ccccc2)C(=O)O)C(=O)c2ccccc2C1=O [UTA #66] | – | 66 | – | 66.9 | –
13 | CC1=C(CCCCC(=O)O)C(=O)c2ccccc2C1=O [UTA #67, 25-(3-methyl-1,4-naphthoquinone-2-yl)pentanoic acid] | 97.1 | 67.6 | – | 74.9 | –
14 | CC1=C(CCCCCC(=O)O)C(=O)c2ccccc2C1=O [UTA #70] | 91.8 | 73.3 | – | 66.8 | –
15 | CC1=C(CCCCC(=O)N[C@@H](Cc2ccccc2)C(=O)OC(C)(C)C)C(=O)c2ccccc2C1=O [UTA #71] | 92.2 | – | – | 70.5 | –
16 | CC1=C(CCCCC(=O)N[C@@H](Cc2ccccc2)C(=O)O)C(=O)c2ccccc2C1=O [UTA #72] | 84.8 | – | 90.7 | 90.7 | –
17 | CC1=C(CCCC(=O)NCCc2c[nH]c3ccccc23)C(=O)c2ccccc2C1=O [UTA #73, N-(2-(1H-indol-3-yl)ethyl)-4-(3-methyl-1,4-naphthoquinone-2-yl)butanamide] | 96.1 | – | 86.2 | 86.2 | –
18 | CC1=C(CCCC(=O)NCCc2ccc(O)cc2)C(=O)c2ccccc2C1=O [UTA #74, N-(4-hydroxyphenethyl)-4-(3-methyl-1,4-naphthoquinone-2-yl)butanamide] | 101 | – | 91.7 | 91.7 | –
19 | CC1=C(CCCCCC(=O)N[C@@H](Cc2ccccc2)C(=O)OC(C)(C)C)C(=O)c2ccccc2C1=O [UTA #75] | 95.4 | – | – | 61.4 | –
20 | CC1=C(CCCCCC(=O)N[C@H](CO)Cc2ccccc2)C(=O)c2ccccc2C1=O [UTA #84] | 90.4 | – | – | 74.4 | –
